# Measurements taken from patent publication US20250109127A1, “METHODS OF USE OF PHENOXYPROPYLAMINE COMPOUNDS TO TREAT DEPRESSION” (Minerva Neurosciences, Inc., priority 2013, published 2025).
# Entries after “also recorded” stand apart in the source; their conditions may differ.
# Legend:
# sleep EEG parameters = test: Polysomnography / sleep EEG study; format: in vivo, human; details: escitalopram 20 mg
# Protocol: In this study, certain pharmacodynamic sleep parameters predictive of antidepressant activity were monitored and measured. […] Three doses of SON-117 were tested (1 mg, 3 mg, 7.5 mg). […] In an embodiment, SON-117 affected sleep. In an embodiment, SON-117 affected REM sleep.
# […] subjects were tested in a sleep study, where 23 subjects were dosed with SON-117 in amounts of 1 mg up to 7.5 mg; 12 were given a placebo; and 8 were given escitalopram at a dose of 20 mg. Sleep was recorded in individual sound-attenuated and comfortably furnished bedrooms. During bedtime hours subjects were recumbent and the lights are turned off. The polysomnographic montage consisted of 4 EEG channels (C3A2, O1A2, C4A1, and O2A1), bilateral electro-oculograms, and 2 submental electromyograms. The different sleep parameters were derived with the Hypnos software from the visual scoring of the recordings at 30 sec epochs according to Rechtschaffen and Kales (1968) rules. Sleep continuity parameters comprise both sleep initiation and sleep maintenance variables. Sleep architecture parameters, which include REM sleep parameters, comprise stages distribution variables documenting duration and proportion of the different sleep stages and sleep profile variables that provide an outline on the time course of the different sleep stages during the recording period. All night sleep EEG spectral analysis was carried out on the C3-A2 derivation by means a fast Fourrier transform algorithm. Epoch length was 2 seconds at a sampling rate of 256 Hz and truncating error was reduced by applying a Hanning window. Sleep visual scores of each 30-second epoch was synchronised with power density values in order to allow the analysis of power density within in specific period of time such as REM and non REM sleep.
# [1] = system: dopamine release in the rat prefrontal cortex; test: Microdialysis: dopamine release in prefrontal cortex after I.P. administration; format: in vivo; details: 3 mg/kg IP, n = 8
# Protocol: The aim of the study was to evaluate, using microdialysis, the effects of an intraperitoneal (I.P.) administration in rats of three different doses of SON-117 on dopamine and its metabolites, serotonin and its metabolite (5-HIAA), and norepinephrine levels in prefrontal cortex.
# Thirty-two adult male Wistar rats were used for the whole study (4 groups of eight animals planned for the study, Table 1).
# Surgery was performed on rats weighing about 300 g at the beginning of the experiments. Rats were anaesthetized with Ketamine (50 mg/kg) & Xylazine (15 mg/kg) by intramuscular administration. The animals were placed in a stereotaxic apparatus in the flat-skull position at a constant setting of −3.3 mm between ear bars and the incisor bar. The animals were treated with a local anesthesic (xylocaine 1%, Astra Zeneca) and an analgesic (Temgesic, from Schering Plough, 0.05 mg/kg, s.c.). A rostrocaudal midline incision was made with a lancet to expose the dorsal skull surface. The “stereotaxic zero” was defined by the Bregma in accordance with Paxinos and Watson's atlas (1986). A hole was drilled in the skull with a drill and the meninges were pierced with a sterile needle to implant a CMA12 guide cannula which later received the dialysis probe.
# Coordinates used for implanting guide cannula in prefrontal cortex from Bregma were anteroposterior 3.7 mm, mediolateral 0.8 mm, and dorsoventral −2 mm (top of the probe was at −5 mm). The guide cannula was fixed to the skull with two stainless steel screws (1.88 mm outside diameter) anchored. An application of dental cement was added. A plastic collar allowed each animal to be tethered to a Swivel assembly of the CMA 120 awake animal system. Following surgery, rats were kept in individual cages and allowed to recover for a minimum of 3-5 days before the experimentation. The rats were handled and put in plastic bowl for 10 min at least every day to habituate the animals to their new environment for the dialysis. An I.P. administration with saline was also performed every day.
# Dialysis probes (CMA12/3 mm, membrane, 20 kD cut-off, Carnegie Medicine, Stockholm, Sweden), were carefully washed before inserting into the guide cannula. The wash was performed with the artificial cerebrospinal fluid (aCSF) medium (NaCl 147 mM, KCl 2.7 mM, CaCl2 1.2 mM, MgCl2 0.85 mM) at room temperature. The dialysis system was then equilibrated at 20° C. at a perfusion rate of 1 μl/min with a Carnegie pump (CMA100). All catheters (FEP tubing, internal volume of 1.2 μl/10 cm, and tubing adaptors) used for microdialysis were treated in the same conditions.
# The probes duly prepared were inserted into the guide cannula and the CMA120 Swivel assembly secured to the animal using a plastic collar. Flow through the dialysis probe with aCSF was maintained at a rate of 1 μl/min during the whole experimentation. The first four fractions (corresponding to 2 hours) were discarded to avoid the effects of parenchymal disturbance and to ensure that an approximate steady-state level was reached. Fractions were then collected over a period of 8.5 h during which time the animals remained quiet. The dialysates were automatically collected with an autosampler (microfraction collector CMA 140, Carnegie Medicin) and stored at −80° C. until analysis. […] Perfusion was then maintained for 7 hours with aCSF. The dialysates (30 μl) were collected into 300 μl vials, transferred into dry ice and then kept frozen (−80° C.) until analysis. Frozen samples were shipped to a partner for analysis. At the end of the microdialysis study, a PBS with colored ink was perfused through the probe in order to visualize the dialyzed area.
# Catecholamine assay: Concentrations of dopamine, DOPAC, HVA, 5-HIAA, 5-HT, and norepinephrin were determined for each sample by HPLC coupled with electrochemical detection.
# [2] = system: animals exposed to chronic mild stress; test: Chronic mild stress (CMS) model, consumption of 1% sucrose solution; format: in vivo, rat
# Protocol: Male Wistar rats (Charles River, Germany) were brought into the laboratory one month before the start of the experiment. Except as described below, the animals were singly housed with food and water freely available, and were maintained on a 12-h light/dark cycle, in a constant temperature (22±2° C.) and humidity (50±5%) conditions.
# After a period of 2 weeks of adaptation to laboratory and housing conditions, the animals were first trained to consume a 1% sucrose solution; training consisted of nine 1 h baseline tests in which sucrose was presented, in the home cage, following 14 h food and water deprivation; the sucrose intake was measured by weighing pre-weighed bottles containing the sucrose solution, at the end of the test. Subsequently, the sucrose consumption was monitored, under similar conditions, at weekly intervals throughout the whole experiment.
# On the basis of their sucrose intakes in the final baseline test, the animals were divided into two matched groups. One group of animals was subjected to the chronic mild stress procedure for a period of 8 consecutive weeks. Each week of stress regime consisted of: two periods of food or water deprivation, two periods of 45 degree cage tilt, two periods of intermittent illumination (lights on and off every 2 h), two periods of soiled cage (250 ml water in sawdust bedding), one period of paired housing, two periods of low intensity stroboscopic illumination (150 flashes/min), and three periods of no stress. All stressors were 10-14 h of duration and were applied individually and continuously, day and night. Control animals were housed in separate rooms and had no contact with the stressed animals. They were deprived of food and water for the 14 h preceding each sucrose test, but otherwise food and water were freely available in the home cage.
# On the basis of their sucrose intakes following initial 2 weeks of stress, both the stressed and the control groups were each divided further into matched subgroups (n=8), and for subsequent five weeks they received once daily intraperitoneal injections of vehicle (0.5% hydroxypropylmethylcellulose, 1 ml/kg), SON-117 (0.001, 0.01, 0.1 and 1 mg/kg) or imipramine (10 mg/kg) as the reference treatment. The drugs were administered at approx. 10:00 AM and the weekly sucrose tests were carried out 24 h following the last drug injections. After five weeks all treatments were terminated and one additional sucrose test was carried out after one week of withdrawal. Stress was continued throughout the period of treatment and withdrawal.
# (§1) After completion of the administration and withdrawal period, all control and stressed animals were placed in an open field (100 cm in diameter, 35 cm high) and allowed to explore two identical objects (cylinder-shaped object with walls painted white, 7 cm in diameter, 11 cm high) for the time required to complete 15 s of exploration of either object. For the retention trial conducted one hour later, one of the objects presented previously was replaced with a novel object (prism-shaped object with walls painted black, 5 cm wide, 14 cm high). Rats were returned to the open field for 5 min and the duration of exploration (i.e. sitting in close proximity to the objects, sniffing or touching them) of each object was measured separately by a trained observer. The data were calculated according to the following formula: [time of novel object exploration divided by time of novel plus familiar object exploration multiplied by 100]. The CMS and NOR data were analyzed by multiple analyses of variance with three between-subjects factors (stress/control, drug treatments and intakes in successive sucrose tests). The Fisher's LSD test was used for the post-hoc comparisons of means.
# [3] = system: animals exposed to chronic mild stress; test: Novel object recognition test after CMS and treatment withdrawal; format: in vivo, rat; details: imipramine 10 mg/kg IP, one week after withdrawal
# Description: as §1
# [4] = Pharmacokinetic study, plasma concentration on day 1 and day 14; format: in vivo; details: day 1 and day 14 after dosing with SON-117
# Description: were examined in pharmacokinetic studies.
# FIG. 34 illustrates the plasma concentration of SON-117 as a function of time on day 1 after dosing with SON-117. FIG. 35 illustrates the plasma concentration of SON-117 as a function of time on day 14 after dosing with SON˜117.
# FIG. 36 illustrates the plasma concentration of the M1 metabolite of SON-117 as a function of time on day 1 after dosing with SON-117. FIG. 37 illustrates the plasma concentration of the M1 metabolite of SON-117 as a function of time on day 14 after dosing with SON-117.
compound,measurement,setting,value
"CN(C)CCC[C@@]1(c2ccc(F)cc2)OCc2cc(C#N)ccc21 [escitalopram, reference compound]","pharmacodynamic sleep parameters, positive comparator",sleep EEG parameters,behaved as expected
Cc1nnc(-c2cc3c(OC[C@@H](O)CN4CCC(c5ccc(Cl)c(Cl)c5)CC4)cccc3o2)o1.Cl [SON117],"Dopamine release, MEAN",[1]; T0-T30 min,129.47 % of respective basal
same,"Dopamine release, MEAN",[1]; T30-T1 h,110.54 % of respective basal
same,"Dopamine release, MEAN",[1]; T1 h 30-T2 h,134.25 % of respective basal
same,"Dopamine release, MEAN",[1]; T1 h-T1 h 30,169.31 % of respective basal
same,"Dopamine release, MEAN",[1]; T2 h 30-T3 h,115.17 % of respective basal
same,"Dopamine release, MEAN",[1]; T2 h-T2 h 30,106.18 % of respective basal
same,"Dopamine release, MEAN",[1]; T3 h 30-T4 h,113.02 % of respective basal
same,"Dopamine release, MEAN",[1]; T3 h-T3 h 30,117.50 % of respective basal
same,"Dopamine release, MEAN",[1]; T4 h 30-T5 h,111.42 % of respective basal
same,"Dopamine release, MEAN",[1]; T4 h-T4 h 30,126.77 % of respective basal
same,"Dopamine release, MEAN",[1]; T5 h 30-T6 h,148.15 % of respective basal
same,"Dopamine release, MEAN",[1]; T5 h-T5 h 30,123.35 % of respective basal
same,"Dopamine release, MEAN",[1]; T6 h 30-T7 h,167.43 % of respective basal
same,"Dopamine release, MEAN",[1]; T6 h-T6 h 30,131.63 % of respective basal
same,"Dopamine release, MEAN",[1]; T-30 min-T0 (before administration),96.15 % of respective basal
same,"Dopamine release, MEAN",[1]; T-1 h 30-T-1 h (before administration),104.41 % of respective basal
same,"Dopamine release, MEAN",[1]; T-1 h-T-30 min (before administration),99.29 % of respective basal
"CN(C)CCCN1c2ccccc2CCc2ccccc21 [imipramine, reference compound]",treatment time until increase in sucrose intake in stressed animals reached statistical significance vs Week 0,[2]; imipramine 10 mg/kg IP,four
same,effect on sucrose intake one week after cessation of treatment,"[2]; imipramine 10 mg/kg IP, stressed animals",maintained
same,"sucrose intake in control animals, compared to vehicle","[2]; once daily IP for five weeks, imipramine 10 mg/kg, SON-117 all doses (0.001, 0.01, 0.1 and 1 mg/kg)",no significant effect
same,"sucrose consumption in stressed animals, compared to vehicle","[2]; once daily IP for five weeks, imipramine 10 mg/kg, SON-117 all four doses (0.001-1 mg/kg)",gradually increased; also recorded: fully reversed
same,recognition index in control animals,[3],decreased
same,effect against the CMS-induced deficit in recognition index,[3]; stressed animals,ineffective
OCc1nnc(-c2cc3c(OC[C@@H](O)CN4CCC(c5ccc(Cl)c(Cl)c5)CC4)cccc3o2)o1 [M1],"AUC, dependence on dose",[4],dose-proportional increase
same,"Cmax, dependence on dose",[4],dose-proportional increase
